# Test system: glucocorticoid receptor function
# Assay: one or more of the above assays (GR binding and glucocorticoid receptor cell assays: aromatase, IL-6, TAT, MMTV-Luc, IL-8, ICAM-Luc)
# Format: cell-based
# Conditions: assay not specified per compound
row,Structure (SMILES),activity as agonists of the glucocorticoid receptor function in one or more of the above assays
1,COc1ccc(F)cc1C(C)(C)CC(O)(Cc1cc2c(C#N)cccc2[nH]1)C(F)(F)F (centres unmarked) [2-[4-(5-Fluoro-2-methoxyphenyl)-2-hydroxy-4-methyl-2-trifluoromethylpentyl]-1H-indole-4-carbonitrile],potent agonists
2,"Cc1ccc(F)cc1C(C)(C)CC(O)(Cc1cc2[nH]c(=O)ccc2[nH]1)C(F)(F)F (centres unmarked) [2-[4-(5-Fluoro-2-methylphenyl)-2-hydroxy-4-methyl-2-trifluoromethylpentyl]-1,4-dihydropyrrolo[3,2-b]pyridin-5-one]",potent agonists
3,"Cc1ccc(F)cc1C(C)(C)CC(O)(Cc1cc2c(C)nccc2[nH]1)C(F)(F)F (centres unmarked) [1,1,1-Trifluoro-4-(5-fluoro-2-methylphenyl)-4-methyl-2-(4-methyl-1H-pyrrolo[3,2-c]pyridin-2-ylmethyl)pentan-2-ol]",potent agonists
4,"COc1ccc(-c2cccnc2)cc1C(C)(C)CC(O)(Cc1cc2ccncc2[nH]1)C(F)(F)F (centres unmarked) [1,1,1-Trifluoro-4-(2-methoxy-5-pyridin-3-ylphenyl)-4-methyl-2-(1H-pyrrolo[2,3-c]pyridin-2-ylmethyl)pentan-2-ol]",potent agonists

# Target: T1, human glucocorticoid receptor (GR) complex (Homo sapiens, UniProt P04150)
# T1 construct: made in house; host or cells: insect expression system (baculovirus lysate)
# T1 sequence (P04150 1-777): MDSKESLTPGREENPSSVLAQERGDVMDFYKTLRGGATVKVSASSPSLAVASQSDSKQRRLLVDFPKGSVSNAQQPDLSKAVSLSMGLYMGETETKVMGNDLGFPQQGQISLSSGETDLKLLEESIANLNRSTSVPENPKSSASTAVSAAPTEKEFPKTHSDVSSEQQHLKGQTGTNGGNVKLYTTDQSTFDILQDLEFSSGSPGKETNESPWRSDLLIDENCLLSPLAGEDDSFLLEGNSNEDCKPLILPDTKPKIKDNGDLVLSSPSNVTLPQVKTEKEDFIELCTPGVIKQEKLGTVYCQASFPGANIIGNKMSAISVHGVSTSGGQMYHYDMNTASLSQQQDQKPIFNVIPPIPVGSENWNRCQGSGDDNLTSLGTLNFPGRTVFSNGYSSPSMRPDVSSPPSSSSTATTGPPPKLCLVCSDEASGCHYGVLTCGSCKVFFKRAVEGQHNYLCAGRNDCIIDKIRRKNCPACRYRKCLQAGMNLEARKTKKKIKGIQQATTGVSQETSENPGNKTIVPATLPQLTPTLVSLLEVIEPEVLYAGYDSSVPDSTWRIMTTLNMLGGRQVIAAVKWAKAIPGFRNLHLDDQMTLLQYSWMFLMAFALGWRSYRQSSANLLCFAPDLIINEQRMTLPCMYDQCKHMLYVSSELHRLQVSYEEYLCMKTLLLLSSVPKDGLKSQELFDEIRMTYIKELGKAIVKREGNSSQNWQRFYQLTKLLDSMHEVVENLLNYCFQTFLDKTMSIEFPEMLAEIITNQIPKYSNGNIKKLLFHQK
# Assay: Glucocorticoid receptor competitive binding assay (fluorescence polarization, TAMRA-labeled dexamethasone probe)
# Conditions: compounds of Formula (IA)
# Experimental: Compounds of the invention were evaluated for binding to the steroid receptor by a fluorescence polarization competitive binding assay. Detailed descriptions for preparation of recombinant glucocorticoid receptor (GR) complex used in the assay is described in U.S. patent application Pub.
# A. Glucocorticoid Receptor Competitive Binding Assay
# Step 1. Characterization of the Fluorescent Probe
# The wavelengths for maximum excitation and emission of the fluorescent probe should first be measured. An example of such a probe is rhodamine (TAMRA)-labeled dexamethasone.
# The affinity of the probe for the steroid receptor was then determined in a titration experiment. The fluorescence polarization value of the probe in assay buffer was measured on an SLM-8100 fluorometer using the excitation and emission maximum values described above. Aliquots of expression vector lysate were added and fluorescence polarization was measured after each addition until no further change in polarization value was observed. Non-linear least squares regression analysis was used to calculate the dissociation constant of the probe from the polarization values obtained for lysate binding to the probe.
# Step 2. Screening for Inhibitors of Probe Binding
# This assay uses fluorescence polarization (FP) to quantitate the ability of test compounds to compete with tetramethyl rhodamine (TAMRA)-labeled dexamethasone for binding to a human glucocorticoid receptor (GR) complex prepared from an insect expression system. The assay buffer was: 10 mM TES, 50 mM KCl, 20 mM Na2MoO4.2H2O, 1.5 mM EDTA, 0.04% w/v CHAPS, 10% v/v glycerol, 1 mM dithiothreitol, pH 7.4. Test compounds were dissolved to 1 mM in neat DMSO and then further diluted to 10× assay concentration in assay buffer supplemented with 10% v/v DMSO. Test compounds were serially diluted at 10× assay concentrations in 10% DMSO-containing buffer in 96-well polypropylene plates. Binding reaction mixtures were prepared in 96-well black Dynex microtiter plates by sequential addition of the following assay components to each well: 15 μL of 10× test compound solution, 85 μL of GR-containing baculovirus lysate diluted 1:170 in assay buffer, and 50 μL of 15 nM TAMRA-labeled dexamethasone. Positive controls were reaction mixtures containing no test compound; negative controls (blanks) were reaction mixtures containing 0.7 μM to 2 μM dexamethasone. […] IC50 values were determined by iterative non-linear curve fitting of the FP signal data to a 4-parameter logistic equation.
row,Structure (SMILES),activity in the GR binding assay
1,CN(C)C(=O)c1ccc2cc(CC(O)(CC(C)(C)c3cc(F)ccc3O)C(F)(F)F)[nH]c2c1 (centres unmarked) [2-[4-(5-Fluoro-2-hydroxyphenyl)-2-hydroxy-4-methyl-2-trifluoromethylpentyl]-1H-indole-6-carboxylic acid dimethylamide],potent activity
2,"COc1ccc(F)cc1C(C)(C)CC(O)(Cn1ccc2cnccc21)C(F)(F)F (centres unmarked) [1,1,1-Trifluoro-4-(5-fluoro-2-methoxyphenyl)-4-methyl-2-pyrrolo[3,2-c]pyridin-1-ylmethylpentan-2-ol]",potent activity
3,"CC(C)(CC(O)(Cc1cc2cc(-c3ccccc3)ccc2[nH]1)C(F)(F)F)c1cc(F)cc2c1OCC2 (centres unmarked) [1,1,1-Trifluoro-4-(5-fluoro-2,3-dihydrobenzofuran-7-yl)-4-methyl-2-(5-phenyl-1H-indol-2-ylmethyl)pentan-2-ol]",potent activity
4,"CC(C)(CC(O)(Cc1cc2ccccc2[nH]1)C(F)(F)F)c1ccc(C(F)(F)F)cc1 (centres unmarked) [1,1,1-Trifluoro-2-(1H-indol-2-ylmethyl)-4-methyl-4-(4-trifluoromethylphenyl)pentan-2-ol]",potent activity
5,"CN(C)c1ccc(C(C)(C)CC(O)(Cc2cc3ccccc3[nH]2)C(F)(F)F)cc1 (centres unmarked) [4-(4-Dimethylaminophenyl)-1,1,1-trifluoro-2-(1H-indol-2-ylmethyl)-4-methylpentan-2-ol]",potent activity
6,"COc1ccc(F)cc1C(C)(C)CC(O)(Cc1cc2ccccc2s1)C(F)(F)F (centres unmarked) [2-Benzo[b]thiophen-2-ylmethyl-1,1,1-trifluoro-4-(5-fluoro-2-methoxyphenyl)-4-methylpentan-2-ol]",potent activity
7,COc1ccc(F)cc1C(C)(C)CC(O)(Cc1cc2cc(C(=O)OCC[Si](C)(C)C)ccc2[nH]1)C(F)(F)F (centres unmarked) [2-[4-(5-Fluoro-2-methoxyphenyl)-2-hydroxy-4-methyl-2-trifluoromethylpentyl]-1H-indole-5-carboxylic acid-2-trimethylsilanylethyl ester],potent activity
8,"CC(C)(CC(O)(Cc1cc2cnccc2s1)C(F)(F)F)c1cc(Cl)cc2c1OCC2 (centres unmarked) [4-(5-Chloro-2,3-dihydrobenzofuran-7-yl)-1,1,1-trifluoro-4-methyl-2-thieno[3,2-c]pyridin-2-ylmethylpentan-2-ol]",potent activity
9,COc1ccc(F)cc1C(C)(C)CC(O)(Cc1cc2cc(C(=O)NCCO)ccc2[nH]1)C(F)(F)F (centres unmarked) [2-[4-(5-Fluoro-2-methoxyphenyl)-2-hydroxy-4-methyl-2-trifluoromethylpentyl]-1H-indole-5-carboxylic acid (2-hydroxyethyl)amide],potent activity
10,"COc1ccc(F)cc1C(C)(C)CC(O)(Cc1ccncc1)C(F)(F)F (centres unmarked) [1,1,1-Trifluoro-4-(5-fluoro-2-methoxyphenyl)-4-methyl-2-pyridin-4-ylmethylpentan-2-ol]",potent activity
11,"CC(C)(CC(O)(Cc1ccnc2ccccc12)C(F)(F)F)c1ccncc1 (centres unmarked) [1,1,1-Trifluoro-4-methyl-4-pyridin-4-yl-2-quinolin-4-ylmethylpentan-2-ol]",potent activity
12,"Cc1ccc(F)cc1C(C)(C)CC(O)(Cc1cc2cc(=O)n(C)cc2[nH]1)C(F)(F)F (centres unmarked) [2-[4-(5-Fluoro-2-methylphenyl)-2-hydroxy-4-methyl-2-trifluoromethylpentyl]-6-methyl-1,6-dihydropyrrolo[2,3-c]pyridin-5-one]",potent activity
13,CC(C)(CC(O)(Cc1cc2ccc(C(=O)N3CCOCC3)cc2[nH]1)C(F)(F)F)c1cc(F)ccc1O (centres unmarked) [{2-[4-(5-Fluoro-2-hydroxyphenyl)-2-hydroxy-4-methyl-2-trifluoromethylpentyl]-1H-indol-6-yl}morpholin-4-ylmethanone],potent activity
14,COc1ccc(C)cc1C(C)(C)CC(O)(Cc1cc2c(C)cc(C#N)cc2[nH]1)C(F)(F)F (centres unmarked) [2-[2-Hydroxy-4-(2-methoxy-5-methylphenyl)-4-methyl-2-trifluoromethylpentyl]-4-methyl-1H-indole-6-carbonitrile],potent activity
15,"COc1ccc(F)cc1C(C)(C)CC(O)(Cc1cc2cnccc2o1)C(F)(F)F (centres unmarked) [1,1,1-Trifluoro-4-(5-fluoro-2-methoxyphenyl)-2-furo[3,2-c]pyridin-2-ylmethyl-4-methylpentan-2-ol]",potent activity
16,"Cc1ccc(F)cc1C(C)(C)CC(O)(Cc1cc2cc(=O)[nH]cc2[nH]1)C(F)(F)F (centres unmarked) [2-[4-(5-Fluoro-2-methylphenyl)-2-hydroxy-4-methyl-2-trifluoromethylpentyl]-1,6-dihydropyrrolo[2,3-c]pyridin-5-one]",potent activity
17,"CC(C)(CC(O)(Cc1cc2cc(C(=O)O)ccc2[nH]1)C(F)(F)F)c1cc(Br)cc2c1OCC2 (centres unmarked) [2-[4-(5-Bromo-2,3-dihydrobenzofuran-7-yl)-2-hydroxy-4-methyl-2-trifluoromethylpentyl]-1H-indole-5-carboxylic acid]",potent activity
18,"COc1ccc(F)cc1C(C)(C)CC(O)(Cc1cc2cnccc2s1)C(F)(F)F (centres unmarked) [1,1,1-Trifluoro-4-(5-fluoro-2-methoxyphenyl)-4-methyl-2-thieno[3,2-c]pyridin-2-ylmethylpentan-2-ol]",potent activity
19,COc1ccc(F)cc1C(C)(C)CC(O)(Cc1cc2cc(C(=O)N3CCCCC3)ccc2[nH]1)C(F)(F)F (centres unmarked) [{2-[4-(5-Fluoro-2-methoxyphenyl)-2-hydroxy-4-methyl-2-trifluoromethylpentyl]-1H-indol-5-yl}piperidin-1-ylmethanone],potent activity
